Earlier results on 1 molecule are cited in patent publication US20150157610A1, “PHARMACEUTICAL COMPOSITION FOR TREATING INFLAMMATORY DISEASE” (OSAKA UNIVERSITY, priority 2012, published 2015).

This data set relates to fulminant myocarditis. Conditions: experimental, Non Patent Literature 2 and 3.

Consider `CCCCCCCCc1ccc(CCC(N)(CO)CO)cc1` [FTY720], for which the “efficacy against fulminant myocarditis” value was “experimentally effective”.
